Data published in ChEMBL document CHEMBL5385942, “C3-Symmetric ligands in drug design: An overview of the challenges and opportunities ahead” (Bioorg Med Chem Lett, 2024).
Where “and” joins values, the source holds several entries; their conditions need not be identical. Equal values may be shown once. One block for each compound: values may come before it. Calls of active or inactive are those of the source. The rule behind the calls is not given here.

What was measured:
Jurkat = test: Antiproliferative activity against human Jurkat cells assessed as inhibition of cell growth incubated for 24 hrs by SRB assay; assay type: functional, cell-based
MCF7 = test: Antiproliferative activity against human MCF7 cells assessed as inhibition of cell growth incubated for 24 hrs by SRB assay; assay type: functional, cell-based; conditions: MCF7, 24 h
LNCaP = test: Antiproliferative activity against human LNCaP cells assessed as inhibition of cell growth incubated for 24 hrs by SRB assay; assay type: functional, cell-based
T47D = test: Antiproliferative activity against human T47D cells assessed as inhibition of cell growth incubated for 24 hrs by SRB assay; assay type: functional, cell-based
A549 = test: Antiproliferative activity against human A549 cells assessed as inhibition of cell growth incubated for 24 hrs by SRB assay; assay type: functional, cell-based; conditions: A549, 24 h
[1] = Antiproliferative activity against human SW707 cells assessed as inhibition of cell growth incubated for 24 hrs by SRB assay; assay type: functional, cell-based; conditions: SW707, 24 h
Human betaherpesvirus 5 = test: Antiviral activity against HCMV infected in HFF cells assessed as reduction in viral replication; assay type: functional, organism-based; conditions: Human betaherpesvirus 5, HFF
Micrococcus luteus = test: Antimicrobial activity against Micrococcus luteus ATCC 9341 assessed as zone of inhibition by […]; assay type: functional
Staphylococcus aureus = test: Antimicrobial activity against Staphylococcus aureus MTCC 96 assessed as zone of inhibition by […]; assay type: functional
Bacillus subtilis = test: Antimicrobial activity against Bacillus subtilis MTCC 441 assessed as zone of inhibition by […]; assay type: functional
Escherichia coli = test: Antimicrobial activity against Escherichia coli ATCC 25922 assessed as zone of inhibition by […]; assay type: functional
[2] = Growth inhibition of human NCI cells; assay type: functional
MDA-MB-468 = test: Antiproliferative activity against human MDA-MB-468 cells assessed as inhibition of cell growth; assay type: functional, cell-based
Pseudomonas aeruginosa = test: Antimicrobial activity against Pseudomonas aeruginosa MTCC 741 assessed as zone of inhibition by […]; assay type: functional, organism-based
Quadruplex DNA [3] = test: Stabilization of human G4 quadruplex telomeric22 DNA assessed as change in temperature at 1 uM by FRET assay; assay type: nucleic-acid assay
Quadruplex DNA [4] = test: Stabilization of human G4 quadruplex telomeric22 DNA assessed as change in temperature at 10 uM by FRET assay; assay type: nucleic-acid assay
Quadruplex DNA [5] = test: Stabilization of human G4 quadruplex telomeric22 DNA assessed as change in temperature at 5 uM by FRET assay; assay type: nucleic-acid assay
HeLa = test: Cytotoxicity against human HeLa cells assessed as inhibition of cell growth incubated for 24 hrs by MTT assay; assay type: functional, cell-based
HepG2 = test: Cytotoxicity against human HepG2 cells assessed as inhibition of cell growth incubated for 24 to 48 hrs by MTT assay; assay type: functional, cell-based

SMILES: ClCCCN1CCN(c2nc(N3CCN(CCCl)CC3)nc(N3CCN(CCCl)CC3)n2)CC1
- IC50 (Jurkat): 620 nM
- IC50 (MCF7): 18700 nM
- IC50 (LNCaP): 620 nM
- IC50 (T47D): 620 nM
- IC50 (A549): 620 nM
- IC50 [1]: 620 nM

SMILES: C[C@@H]1CCC2[C@@H](C)[C@H](OC(=O)CCC(=O)OCC(COC(=O)CCC(=O)O[C@@H]3O[C@@H]4O[C@]5(C)CC[C@H]6[C@H](C)CCC([C@H]3C)[C@@]46OO5)COC(=O)CCC(=O)O[C@@H]3O[C@@H]4O[C@]5(C)CC[C@H]6[C@H](C)CCC([C@H]3C)[C@@]46OO5)O[C@@H]3O[C@]4(C)CC[C@@H]1[C@@]23OO4 (some centres not stated)
- EC50 (Human betaherpesvirus 5): 530 nM

SMILES: Cc1ccc(C2CC(c3ccc(Oc4nc(Oc5ccc(C6=NN(C(N)=S)C(c7ccc(C)cc7)C6)cc5)nc(Oc5ccc(C6=NN(C(N)=S)C(c7ccc(C)cc7)C6)cc5)n4)cc3)=NN2C(N)=S)cc1 (configuration not stated)
- inhibition zone (IZ) (Micrococcus luteus): 20 mm
- inhibition zone (IZ) (Staphylococcus aureus): 11 mm
- inhibition zone (IZ) (Bacillus subtilis): 9 mm

SMILES: O=C(/C=C/c1ccccc1)c1ccc(Oc2nc(Oc3ccc(C(=O)/C=C/c4ccccc4)cc3)nc(Oc3ccc(C(=O)/C=C/c4ccccc4)cc3)n2)cc1
- inhibition zone (IZ) (Micrococcus luteus): 7 mm
- inhibition zone (IZ) (Bacillus subtilis): 7 mm
- inhibition zone (IZ) (Escherichia coli): 6 mm

SMILES: c1ccc(Sc2nc(Sc3ccccc3)nc(Sc3ccccc3)n2)cc1
- GI50 [2]: > 100000 nM

- IC50 (MDA-MB-468): 216000 nM
SMILES: c1ccc(Sc2nc(Sc3ccccn3)nc(Sc3ccccn3)n2)nc1
- GI50 [2]: 3170 nM

SMILES: O=C(/C=C/c1ccc([N+](=O)[O-])cc1)c1ccc(Oc2nc(Oc3ccc(C(=O)/C=C/c4ccc([N+](=O)[O-])cc4)cc3)nc(Oc3ccc(C(=O)/C=C/c4ccc([N+](=O)[O-])cc4)cc3)n2)cc1
- inhibition zone (IZ) (Micrococcus luteus): 7 mm
- inhibition zone (IZ) (Bacillus subtilis): 7 mm
- inhibition zone (IZ) (Escherichia coli): 6 mm
- inhibition zone (IZ) (Pseudomonas aeruginosa): 7 mm

SMILES: NC(=S)N1N=C(c2ccc(Oc3nc(Oc4ccc(C5=NN(C(N)=S)C(c6ccc(Cl)cc6)C5)cc4)nc(Oc4ccc(C5=NN(C(N)=S)C(c6ccc(Cl)cc6)C5)cc4)n3)cc2)CC1c1ccc(Cl)cc1 (configuration not stated)
- inhibition zone (IZ) (Micrococcus luteus): 18 mm
- inhibition zone (IZ) (Staphylococcus aureus): 11 mm
- inhibition zone (IZ) (Bacillus subtilis): 10 mm

SMILES: Cc1ccc(/C=C/C(=O)c2ccc(Oc3nc(Oc4ccc(C(=O)/C=C/c5ccc(C)cc5)cc4)nc(Oc4ccc(C(=O)/C=C/c5ccc(C)cc5)cc4)n3)cc2)cc1
- inhibition zone (IZ) (Micrococcus luteus): 11 mm
- inhibition zone (IZ) (Staphylococcus aureus): 7 mm
- inhibition zone (IZ) (Bacillus subtilis): 10 mm

- ΔTm (Quadruplex DNA [3]): 5.1 °C
- ΔTm (Quadruplex DNA [4]): 11.5 °C
- ΔTm (Quadruplex DNA [5]): 8.4 °C
SMILES: CCN(CC)CCCn1c2ccccc2c2cc(-c3cc(-c4ccc5c(c4)c4ccccc4n5CCCN(CC)CC)cc(-c4ccc5c(c4)c4ccccc4n5CCCN(CC)CC)c3)ccc21

- Activity (Quadruplex DNA [3]): inactive
- Activity (Quadruplex DNA [4]): inactive
- Activity (Quadruplex DNA [5]): inactive
SMILES: c1ccc2c(c1)c1cc(-c3cc(-c4ccc5c(c4)c4ccccc4n5CCN4CCOCC4)cc(-c4ccc5c(c4)c4ccccc4n5CCN4CCOCC4)c3)ccc1n2CCN1CCOCC1

SMILES: c1ccc(Nc2nc(Nc3ccccn3)nc(Nc3ccccn3)n2)nc1
- GI50 [2]: 49800 nM

SMILES: O=C1c2cccc3cccc(c23)C(=O)N1CCCn1c(CCN(CCc2nc3ccccc3n2CCCN2C(=O)c3cccc4cccc(c34)C2=O)CCc2nc3ccccc3n2CCCN2C(=O)c3cccc4cccc(c34)C2=O)nc2ccccc21
- IC50 (HeLa): 150000 nM

SMILES: NC(=S)N1N=C(c2ccc(Oc3nc(Oc4ccc(C5=NN(C(N)=S)C(c6ccccc6)C5)cc4)nc(Oc4ccc(C5=NN(C(N)=S)C(c6ccccc6)C5)cc4)n3)cc2)CC1c1ccccc1 (configuration not stated)
- inhibition zone (IZ) (Micrococcus luteus): 15 mm
- inhibition zone (IZ) (Staphylococcus aureus): 13 mm
- inhibition zone (IZ) (Bacillus subtilis): 11 mm

SMILES: O=C(N/N=C\c1ccc(N(CCCl)CCCl)cc1)c1cc(C(=O)N/N=C\c2ccc(N(CCCl)CCCl)cc2)cc(C(=O)N/N=C/c2ccc(N(CCCl)CCCl)cc2)c1
- IC50 (HepG2): 25 µmol

- ΔTm (Quadruplex DNA [3]): 1.9 °C
- ΔTm (Quadruplex DNA [4]): 13 °C
- ΔTm (Quadruplex DNA [5]): 10 °C
SMILES: c1ccc2c(c1)c1cc(-c3cc(-c4ccc5c(c4)c4ccccc4n5CCN4CCCC4)cc(-c4ccc5c(c4)c4ccccc4n5CCN4CCCC4)c3)ccc1n2CCN1CCCC1

SMILES: NC(=S)N1N=C(c2ccc(Oc3nc(Oc4ccc(C5=NN(C(N)=S)C(c6cccc([N+](=O)[O-])c6)C5)cc4)nc(Oc4ccc(C5=NN(C(N)=S)C(c6cccc([N+](=O)[O-])c6)C5)cc4)n3)cc2)CC1c1cccc([N+](=O)[O-])c1 (configuration not stated)
- inhibition zone (IZ) (Micrococcus luteus): 16 mm
- inhibition zone (IZ) (Staphylococcus aureus): 10 mm
- inhibition zone (IZ) (Bacillus subtilis): 13 mm

SMILES: O=C(/C=C/c1ccc(Cl)cc1Cl)c1ccc(Oc2nc(Oc3ccc(C(=O)/C=C/c4ccc(Cl)cc4Cl)cc3)nc(Oc3ccc(C(=O)/C=C/c4ccc(Cl)cc4Cl)cc3)n2)cc1
- inhibition zone (IZ) (Micrococcus luteus): 7 mm and 10 mm
- inhibition zone (IZ) (Staphylococcus aureus): 10 mm and 7 mm
- inhibition zone (IZ) (Bacillus subtilis): 7 mm and 8 mm
